Data from publication PMC7044277 (Nature Communications, 2020).
“And” between values parts separate entries of the source, which are not always exact repeats. Equal values may be shown once.

What was measured:
Type in all cases: cell-based
DRD2 (D2 long receptor) = DRD2 (D2 long receptor) (Homo sapiens, UniProt P14416); experiment: Gαi1-γ2 dissociation BRET assay, HEK293T; conditions: agonist
320 non-olfactory GPCRs [1] = molecular target: T1, 320 non-olfactory GPCRs (Homo sapiens, UniProt P41231); conditions: receptor P2RY2; replicate values, Fig_4g
T1 construct: expressed in transfected cells; host or cells: HTLA cells
T1 sequence (P41231 whole entry): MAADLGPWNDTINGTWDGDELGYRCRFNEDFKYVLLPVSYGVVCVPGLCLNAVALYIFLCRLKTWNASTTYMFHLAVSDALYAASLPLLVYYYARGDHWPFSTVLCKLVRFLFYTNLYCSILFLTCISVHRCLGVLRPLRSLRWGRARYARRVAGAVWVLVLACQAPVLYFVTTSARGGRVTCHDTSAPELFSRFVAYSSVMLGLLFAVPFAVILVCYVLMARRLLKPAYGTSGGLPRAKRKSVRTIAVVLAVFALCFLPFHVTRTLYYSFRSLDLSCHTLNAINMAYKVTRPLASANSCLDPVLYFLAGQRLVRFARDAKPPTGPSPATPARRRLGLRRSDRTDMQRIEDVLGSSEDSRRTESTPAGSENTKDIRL

320 non-olfactory GPCRs [2] = molecular target: T2, 320 non-olfactory GPCRs (Homo sapiens, UniProt Q8TDV5)
T2 construct: expressed in transfected cells; host or cells: HTLA cells
T2 sequence (Q8TDV5 whole entry): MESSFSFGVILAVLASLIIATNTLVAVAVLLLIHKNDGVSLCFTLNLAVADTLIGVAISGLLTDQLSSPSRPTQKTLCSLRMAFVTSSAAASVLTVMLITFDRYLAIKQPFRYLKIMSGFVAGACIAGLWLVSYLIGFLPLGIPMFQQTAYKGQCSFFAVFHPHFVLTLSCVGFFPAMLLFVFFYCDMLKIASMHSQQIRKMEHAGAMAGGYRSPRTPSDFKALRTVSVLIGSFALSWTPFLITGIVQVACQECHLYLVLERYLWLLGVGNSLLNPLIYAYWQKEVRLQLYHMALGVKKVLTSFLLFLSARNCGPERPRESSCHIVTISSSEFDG
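Throughout, for Fold of Basal: compound tested at 1 µM final concentration.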
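Throughout, for GPCRome agonism screen response: fold over basal response of each receptor without drug.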

Sequence of DRD2 (D2 long receptor) (P14416 whole entry): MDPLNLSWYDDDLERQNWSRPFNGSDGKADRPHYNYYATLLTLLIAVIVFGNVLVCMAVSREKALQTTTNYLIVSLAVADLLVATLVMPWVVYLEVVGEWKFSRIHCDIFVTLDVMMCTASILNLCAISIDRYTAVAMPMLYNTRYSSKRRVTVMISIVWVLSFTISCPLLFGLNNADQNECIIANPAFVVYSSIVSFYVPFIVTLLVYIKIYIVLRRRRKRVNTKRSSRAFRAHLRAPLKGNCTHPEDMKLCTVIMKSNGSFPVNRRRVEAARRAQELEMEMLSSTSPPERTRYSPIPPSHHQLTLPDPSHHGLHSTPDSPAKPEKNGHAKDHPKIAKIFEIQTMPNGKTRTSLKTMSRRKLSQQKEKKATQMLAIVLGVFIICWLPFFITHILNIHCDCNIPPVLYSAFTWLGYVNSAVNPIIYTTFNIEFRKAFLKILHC

`CCOc1cccc2cc(C(C)NCC3(O)CCCCC3)oc12` (stereo not drawn) [O4LE6] was tested, and the EC50 (DRD2 (D2 long receptor)) was 0.0241 µM, the “GPCRome agonism screen response” value (320 non-olfactory GPCRs [1]) was 1.397 and 0.7849 and 2.272 and 0.7466 and the “Fold of Basal” value (320 non-olfactory GPCRs [2]) was 0.5971 and 0.6704 and 0.4797 and 0.8296.
